According to ChEMBL document CHEMBL1687815, “In vivo selection of a missense mutation in adeR and conversion of the novel blaOXA-164 gene into blaOXA-58 in carbapenem-resistant Acinetobacter baumannii isolates from a hospitalized patient” (2010):
Converted amounts (≈) assume the structure as drawn.

Columns and labels:
Acinetobacter baumannii [1] = test: Antimicrobial activity against Acinetobacter baumannii isolate E expressing beta-lactamase OXA-164 isolated from tracheal secretion of patient by vitek 2 system
Acinetobacter baumannii [2] = test: Antimicrobial activity against Acinetobacter baumannii isolate H expressing beta-lactamase OXA-58 isolated from tracheal secretion of patient by vitek 2 system
Acinetobacter baumannii [3] = test: Antimicrobial activity against Acinetobacter baumannii isolate I expressing beta-lactamase OXA-58 isolated from tracheal secretion of patient by Etest
Acinetobacter baumannii [4] = test: Antimicrobial activity against Acinetobacter baumannii isolate C expressing beta-lactamase OXA-164 isolated from tracheal secretion of patient by Etest
Acinetobacter baumannii [5] = test: Antimicrobial activity against Acinetobacter baumannii ATCC 17978 harboring plasmid WH1266 by Etest; assay type: functional
Acinetobacter baumannii [6] = test: Antimicrobial activity against Acinetobacter baumannii isolate C expressing beta-lactamase OXA-164 isolated from tracheal secretion of patient by vitek 2 system
Acinetobacter baumannii [7] = test: Antimicrobial activity against Acinetobacter baumannii isolate L expressing beta-lactamase OXA-58 isolated from tracheal secretion of patient by Etest
Acinetobacter baumannii [8] = test: Antimicrobial activity against Acinetobacter baumannii isolate A expressing beta-lactamase OXA-164 isolated from tracheal secretion of patient by Etest
Acinetobacter baumannii [9] = test: Antimicrobial activity against Acinetobacter baumannii isolate G expressing beta-lactamase OXA-58 isolated from tracheal secretion of patient by Etest
Acinetobacter baumannii [10] = test: Antimicrobial activity against Acinetobacter baumannii isolate B expressing beta-lactamase OXA-164 isolated from tracheal secretion of patient by vitek 2 system
Acinetobacter baumannii [11] = test: Antimicrobial activity against Acinetobacter baumannii ATCC 19606 harboring plasmid WH1266 by Etest; assay type: functional; conditions: ATCC 19606 = CIP 70.34 = JCM 6841
Acinetobacter baumannii [12] = test: Antimicrobial activity against Acinetobacter baumannii isolate F expressing beta-lactamase OXA-164 isolated from tracheostoma of patient by Etest
Acinetobacter baumannii [13] = test: Antimicrobial activity against Acinetobacter baumannii isolate A expressing beta-lactamase OXA-164 isolated from tracheal secretion of patient by vitek 2 system
Acinetobacter baumannii [14] = test: Antimicrobial activity against Acinetobacter baumannii isolate K expressing beta-lactamase OXA-58 isolated from blood culture of patient by vitek 2 system
Acinetobacter baumannii [15] = test: Antimicrobial activity against Acinetobacter baumannii isolate D expressing beta-lactamase OXA-164 isolated from tracheal secretion of patient by vitek 2 system
Acinetobacter baumannii [16] = test: Antimicrobial activity against Acinetobacter baumannii isolate I expressing beta-lactamase OXA-58 isolated from tracheal secretion of patient by vitek 2 system
Acinetobacter baumannii [17] = test: Antimicrobial activity against Acinetobacter baumannii isolate M expressing beta-lactamase OXA-58 isolated from tracheal secretion of patient by vitek 2 system
Acinetobacter baumannii [18] = test: Antimicrobial activity against Acinetobacter baumannii isolate D expressing beta-lactamase OXA-164 isolated from tracheal secretion of patient by Etest
Acinetobacter baumannii [19] = test: Antimicrobial activity against Acinetobacter baumannii ATCC 19606 harboring beta-lactamase OXA-164 by Etest; assay type: functional; conditions: ATCC 19606 = CIP 70.34 = JCM 6841
Acinetobacter baumannii [20] = test: Antimicrobial activity against Acinetobacter baumannii isolate J expressing beta-lactamase OXA-58 isolated from bedsore by Etest
Acinetobacter baumannii [21] = test: Antimicrobial activity against Acinetobacter baumannii isolate K expressing beta-lactamase OXA-58 isolated from blood culture of patient by Etest
Acinetobacter baumannii [22] = test: Antimicrobial activity against Acinetobacter baumannii ATCC 19606 harboring beta-lactamase OXA-58 by Etest; assay type: functional; conditions: ATCC 19606 = CIP 70.34 = JCM 6841
Escherichia coli [23] = test: Antimicrobial activity against Escherichia coli NEB 5-alpha harboring plasmid WH1266 by Etest; assay type: functional
Acinetobacter baumannii [24] = test: Antimicrobial activity against Acinetobacter baumannii isolate B expressing beta-lactamase OXA-164 isolated from tracheal secretion of patient by Etest
Acinetobacter baumannii [25] = test: Antimicrobial activity against Acinetobacter baumannii isolate H expressing beta-lactamase OXA-58 isolated from tracheal secretion of patient by Etest
Acinetobacter baumannii [26] = test: Antimicrobial activity against Acinetobacter baumannii isolate M expressing beta-lactamase OXA-58 isolated from tracheal secretion of patient by Etest
Acinetobacter baumannii [27] = test: Antimicrobial activity against Acinetobacter baumannii ATCC 17978 harboring beta-lactamase OXA-164 by Etest; assay type: functional
Acinetobacter baumannii [28] = test: Antimicrobial activity against Acinetobacter baumannii isolate E expressing beta-lactamase OXA-164 isolated from tracheal secretion of patient by Etest
Acinetobacter baumannii [29] = test: Antimicrobial activity against Acinetobacter baumannii isolate F expressing beta-lactamase OXA-164 isolated from tracheostoma of patient by vitek 2 system
Acinetobacter baumannii [30] = test: Antimicrobial activity against Acinetobacter baumannii isolate L expressing beta-lactamase OXA-58 isolated from tracheal secretion of patient by vitek 2 system
Escherichia coli [31] = test: Antimicrobial activity against Escherichia coli NEB 5-alpha harboring beta-lactamase OXA-58 by Etest; assay type: functional
Acinetobacter baumannii [32] = test: Antimicrobial activity against Acinetobacter baumannii ATCC 17978 harboring beta-lactamase OXA-58 by Etest; assay type: functional
Acinetobacter baumannii [33] = test: Antimicrobial activity against Acinetobacter baumannii isolate J expressing beta-lactamase OXA-58 isolated from bedsore by vitek 2 system
Acinetobacter baumannii [34] = test: Antimicrobial activity against Acinetobacter baumannii by vitek 2 system
Acinetobacter baumannii [35] = test: Antimicrobial activity against Acinetobacter baumannii isolate G expressing beta-lactamase OXA-58 isolated from tracheal secretion of patient by vitek 2 system
Escherichia coli [36] = test: Antimicrobial activity against Escherichia coli NEB 5-alpha harboring beta-lactamase OXA-164 by Etest; assay type: functional

C[C@@H](O)[C@H]1C(=O)N2C(C(=O)O)=C(SCCNC=N)C[C@H]12 [IMIPENEM ANHYDROUS]
MIC (Acinetobacter baumannii [1]): ≥ 16 µg/mL | MIC (Acinetobacter baumannii [2]): ≥ 16 µg/mL | MIC (Acinetobacter baumannii [3]): ≥ 64 µg/mL | MIC (Acinetobacter baumannii [4]): 32 µg/mL (≈ 107 µM) | MIC (Acinetobacter baumannii [5]): 0.25 µg/mL (≈ 0.835 µM) | MIC (Acinetobacter baumannii [6]): ≥ 16 µg/mL | MIC (Acinetobacter baumannii [7]): ≥ 64 µg/mL | MIC (Acinetobacter baumannii [8]): 32 µg/mL (≈ 107 µM) | MIC (Acinetobacter baumannii [9]): ≥ 64 µg/mL | MIC (Acinetobacter baumannii [10]): ≥ 16 µg/mL | MIC (Acinetobacter baumannii [11]): 0.125 µg/mL (≈ 0.418 µM) | MIC (Acinetobacter baumannii [12]): 32 µg/mL (≈ 107 µM) | MIC (Acinetobacter baumannii [13]): 8 µg/mL (≈ 26.7 µM) | MIC (Acinetobacter baumannii [14]): ≥ 16 µg/mL | MIC (Acinetobacter baumannii [15]): ≥ 16 µg/mL | MIC (Acinetobacter baumannii [16]): ≥ 16 µg/mL | MIC (Acinetobacter baumannii [17]): ≥ 16 µg/mL | MIC (Acinetobacter baumannii [18]): 32 µg/mL (≈ 107 µM) | MIC (Acinetobacter baumannii [19]): > 32 µg/mL | MIC (Acinetobacter baumannii [20]): ≥ 64 µg/mL | MIC (Acinetobacter baumannii [21]): ≥ 64 µg/mL | MIC (Acinetobacter baumannii [22]): > 32 µg/mL | MIC (Escherichia coli [23]): 0.19 µg/mL (≈ 0.635 µM) | MIC (Acinetobacter baumannii [24]): 32 µg/mL (≈ 107 µM) | MIC (Acinetobacter baumannii [25]): ≥ 64 µg/mL | MIC (Acinetobacter baumannii [26]): ≥ 64 µg/mL | MIC (Acinetobacter baumannii [27]): > 32 µg/mL | MIC (Acinetobacter baumannii [28]): 32 µg/mL (≈ 107 µM) | MIC (Acinetobacter baumannii [29]): ≥ 16 µg/mL | MIC (Acinetobacter baumannii [30]): ≥ 16 µg/mL | MIC (Escherichia coli [31]): 0.5 µg/mL (≈ 1.67 µM) | MIC (Acinetobacter baumannii [32]): > 32 µg/mL | MIC (Acinetobacter baumannii [33]): ≥ 16 µg/mL | MIC (Acinetobacter baumannii [34]): 8 µg/mL (≈ 26.7 µM) | MIC (Acinetobacter baumannii [35]): ≥ 16 µg/mL | MIC (Escherichia coli [36]): 0.25 µg/mL (≈ 0.835 µM)
